# Source: ChEMBL document CHEMBL5104095, “Proteolysis targeting chimera (PROTAC) in drug discovery paradigm: Recent progress and future challenges” (Eur J Med Chem, 2021)
# How the values were obtained:
# Protein cereblon-NS3 = Protein cereblon-NS3 (Hepacivirus hominis, UniProt A3EZJ3+Q96SW2); experiment: PROTAC activity at CRBN/NS3 of HCV assessed as induction of NS3-eGFP-2A-mCherry degradation incubated for 4 hrs by flow cytometry
# [1] = target: IAP-Tyrosine-protein kinase BTK (Homo sapiens, UniProt P98170+Q06187+Q13489+Q13490); experiment: PROTAC activity at IAP/BTK in human THP-1 cells assessed as reduction in BTK level incubated for 16 hrs by immunoblot analysis; format: cell-based
# [2] = target: T1, von Hippel-Lindau disease tumor suppressor/Mitogen-activated protein kinase 14 (Homo sapiens, UniProt P40337+Q16539); experiment: PROTAC activity at VHL/p38alpha in human MDA-MB-231 cells assessed as induction of p38alpha degradation incubated for 24 hrs by Western blot analysis; format: cell-based
# [3] = target: T1, von Hippel-Lindau disease tumor suppressor/Mitogen-activated protein kinase 14; experiment: PROTAC activity at VHL/p38alpha (unknown origin) assessed as dissociation constant by competitive binding assay
# [4] = target: von Hippel-Lindau disease tumor suppressor/Mitogen-activated protein kinase 14 (Homo sapiens) (UniProt Q16539+P40337); experiment: PROTAC activity at VHL/p38alpha in human MDA-MB-231 cells assessed as induction of p38alpha degradation incubated for 24 hrs by Western blot analysis relative to control; format: cell-based
# [5] = target: T2, Protein cereblon/Indoleamine 2,3-dioxygenase 1 (Homo sapiens, UniProt P14902+Q96SW2); experiment: PROTAC activity at CRBN/IDO1 in human HeLa cells assessed as induction of IDO1 degradation incubated for 24 hrs by immunoblot analysis; format: cell-based
# Target sequence in this assay (P14902 whole entry): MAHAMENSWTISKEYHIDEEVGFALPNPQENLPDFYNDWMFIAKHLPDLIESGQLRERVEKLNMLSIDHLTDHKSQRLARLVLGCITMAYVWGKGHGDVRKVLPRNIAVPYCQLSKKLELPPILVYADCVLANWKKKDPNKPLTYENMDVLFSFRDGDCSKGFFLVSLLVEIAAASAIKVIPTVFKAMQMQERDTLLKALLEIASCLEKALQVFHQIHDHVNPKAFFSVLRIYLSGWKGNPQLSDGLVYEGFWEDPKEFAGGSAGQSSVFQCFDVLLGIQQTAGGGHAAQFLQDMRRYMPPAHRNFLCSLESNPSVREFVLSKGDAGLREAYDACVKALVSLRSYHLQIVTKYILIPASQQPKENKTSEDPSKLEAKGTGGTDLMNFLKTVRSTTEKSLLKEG
# Target sequence in this assay (Q96SW2 whole entry): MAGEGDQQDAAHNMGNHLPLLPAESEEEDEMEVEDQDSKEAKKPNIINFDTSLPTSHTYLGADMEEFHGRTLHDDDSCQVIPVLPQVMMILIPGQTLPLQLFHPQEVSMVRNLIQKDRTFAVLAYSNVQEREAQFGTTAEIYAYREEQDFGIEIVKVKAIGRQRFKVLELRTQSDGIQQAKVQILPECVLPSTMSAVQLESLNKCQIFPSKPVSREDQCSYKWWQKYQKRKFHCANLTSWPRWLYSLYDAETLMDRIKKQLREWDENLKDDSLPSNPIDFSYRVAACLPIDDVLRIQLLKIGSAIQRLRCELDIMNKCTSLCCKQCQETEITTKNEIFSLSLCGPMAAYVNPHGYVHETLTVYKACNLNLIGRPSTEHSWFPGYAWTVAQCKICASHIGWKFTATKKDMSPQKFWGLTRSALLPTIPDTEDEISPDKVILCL
# [6] = target: T2, Protein cereblon/Indoleamine 2,3-dioxygenase 1; experiment: PROTAC activity at CRBN/IDO1 in human HeLa cells assessed as induction of IDO1 degradation incubated for 24 hrs by immunoblot analysis relative to control; format: cell-based
# Target sequence in this assay (P14902 whole entry, looked up): as the sequence (P14902 whole entry) above
# Target sequence in this assay (Q96SW2 whole entry, looked up): as the sequence (Q96SW2 whole entry) above
# [7] = target: Protein cereblon/Tyrosine-protein kinase BTK (Homo sapiens, UniProt Q06187+Q96SW2, C481S); experiment: PROTAC activity at CRBN/BTK C481S mutant transfected in human HeLa cells assessed as induction of BTK C481S degradation incubated for 4 days by immunoblot analysis; format: cell-based
# PC-3 = experiment: Antiproliferative activity against human PC-3 cells assessed as inhibition of cell proliferation incubated for 48 hrs by CCK8 assay; format: functional, cell-based; details: PC-3, 48 h
# [8] = target: von Hippel-Lindau disease tumor suppressor/Barrier-to-autointegration factor (Homo sapiens, UniProt O75531+P40337); experiment: PROTAC activity at VHL/BAF in human MV4-11 cells assessed as induction of BAF degradation incubated for 18 hrs by Western blot analysis; format: cell-based
# [9] = target: von Hippel-Lindau disease tumor suppressor/Barrier-to-autointegration factor (Homo sapiens) (UniProt P40337+O75531); experiment: PROTAC activity at VHL/BAF in human MV4-11 cells assessed as induction of BAF degradation incubated for 18 hrs by Western blot analysis relative to control; format: cell-based
# [10] = target: Protein cereblon/Peptidyl-prolyl cis-trans isomerase FKBP1A (Homo sapiens, UniProt P62942+Q96SW2); experiment: PROTAC activity at CRBN/FKBP12 in human Jurkat cells assessed as induction of FKBP12 degradation incubated for 12 hrs by Western blot analysis; format: cell-based
# [11] = target: Protein cereblon/Adenosine receptor A1 (Homo sapiens) (UniProt P30542+Q96SW2); experiment: PROTAC activity at CRBN/A1AR in human HEK293 cells assessed as induction of A1AR degradation at 10 micromol/L incubated for 12 hrs by Western blot analysis relative to control; format: cell-based; details: dose 10.0 µmol/L
# [12] = target: Alpha-1A adrenergic receptor (Homo sapiens, UniProt P35348); experiment: PROTAC activity at CRBN/A1AR in human HEK293 cells assessed as induction of A1AR degradation incubated for 12 hrs by Western blot analysis; format: cell-based
# T1 sequence (Q16539 whole entry): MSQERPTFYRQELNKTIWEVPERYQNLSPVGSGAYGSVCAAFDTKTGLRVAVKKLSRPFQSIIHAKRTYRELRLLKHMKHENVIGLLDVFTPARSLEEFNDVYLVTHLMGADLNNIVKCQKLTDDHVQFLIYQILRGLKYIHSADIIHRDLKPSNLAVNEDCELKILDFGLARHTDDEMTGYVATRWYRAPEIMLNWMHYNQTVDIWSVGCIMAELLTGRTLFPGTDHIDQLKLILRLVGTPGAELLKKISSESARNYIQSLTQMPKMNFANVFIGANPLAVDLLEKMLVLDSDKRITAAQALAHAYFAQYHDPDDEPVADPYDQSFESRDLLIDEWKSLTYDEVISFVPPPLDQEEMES
# T1 sequence (P40337 whole entry): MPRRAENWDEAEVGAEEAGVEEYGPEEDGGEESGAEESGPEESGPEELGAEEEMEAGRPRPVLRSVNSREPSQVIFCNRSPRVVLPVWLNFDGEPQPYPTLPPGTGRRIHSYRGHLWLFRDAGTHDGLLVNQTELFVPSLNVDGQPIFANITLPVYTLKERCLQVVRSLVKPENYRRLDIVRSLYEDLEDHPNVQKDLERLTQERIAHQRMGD
# Sequence of Protein cereblon-NS3 (A3EZJ3 whole entry): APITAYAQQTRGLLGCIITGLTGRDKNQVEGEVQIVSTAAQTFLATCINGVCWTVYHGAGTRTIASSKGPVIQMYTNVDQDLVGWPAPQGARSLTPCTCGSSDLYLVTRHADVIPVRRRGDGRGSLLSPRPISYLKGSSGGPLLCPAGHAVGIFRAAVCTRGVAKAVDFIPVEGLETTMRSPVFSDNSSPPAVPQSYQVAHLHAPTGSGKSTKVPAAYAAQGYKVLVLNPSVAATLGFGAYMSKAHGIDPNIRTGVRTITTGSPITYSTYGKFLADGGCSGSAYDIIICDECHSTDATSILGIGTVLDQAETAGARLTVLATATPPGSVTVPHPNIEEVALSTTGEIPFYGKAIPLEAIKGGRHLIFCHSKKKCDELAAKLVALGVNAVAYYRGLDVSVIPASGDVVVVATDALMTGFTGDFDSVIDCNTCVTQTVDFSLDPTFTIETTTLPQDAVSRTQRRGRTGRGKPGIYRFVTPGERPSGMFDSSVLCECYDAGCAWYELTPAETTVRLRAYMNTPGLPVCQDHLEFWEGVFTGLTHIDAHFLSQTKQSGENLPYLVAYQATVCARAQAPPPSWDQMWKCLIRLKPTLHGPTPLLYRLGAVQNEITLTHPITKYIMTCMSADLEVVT
# Sequence of Protein cereblon-NS3 (Q96SW2 whole entry): as the sequence (Q96SW2 whole entry) above
# Sequence of Protein cereblon/Adenosine receptor A1 (Homo sapiens) (P30542 whole entry, looked up): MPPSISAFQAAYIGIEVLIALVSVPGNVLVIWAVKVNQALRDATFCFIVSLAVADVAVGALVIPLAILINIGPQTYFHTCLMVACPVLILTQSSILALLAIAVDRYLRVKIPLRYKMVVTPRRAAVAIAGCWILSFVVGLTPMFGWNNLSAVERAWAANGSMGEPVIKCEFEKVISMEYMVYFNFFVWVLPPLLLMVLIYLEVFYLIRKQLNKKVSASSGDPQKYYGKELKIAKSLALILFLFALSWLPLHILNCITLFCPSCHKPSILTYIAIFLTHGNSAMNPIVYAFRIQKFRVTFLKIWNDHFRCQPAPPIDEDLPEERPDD
# Sequence of Protein cereblon/Adenosine receptor A1 (Homo sapiens) (Q96SW2 whole entry, looked up): as the sequence (Q96SW2 whole entry) above
# Sequence of von Hippel-Lindau disease tumor suppressor/Barrier-to-autointegration factor (P40337 whole entry): as the sequence (P40337 whole entry) above
# Sequence of von Hippel-Lindau disease tumor suppressor/Barrier-to-autointegration factor (O75531 whole entry): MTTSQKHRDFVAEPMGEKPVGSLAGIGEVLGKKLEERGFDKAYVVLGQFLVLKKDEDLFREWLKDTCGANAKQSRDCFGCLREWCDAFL
# Sequence of von Hippel-Lindau disease tumor suppressor/Barrier-to-autointegration factor (Homo sapiens) (O75531 whole entry, looked up): as the sequence (O75531 whole entry) above
# Sequence of von Hippel-Lindau disease tumor suppressor/Barrier-to-autointegration factor (Homo sapiens) (P40337 whole entry, looked up): as the sequence (P40337 whole entry) above
compound,measurement,setting,value
CCC[C@H](NC(=O)[C@@H]1[C@H]2CCC[C@H]2CN1C(=O)[C@@H](NC(=O)[C@@H](NC(=O)c1cnc(C(=O)NCCOCCOCCOc2cc3c4c(cccc4c2)C(=O)N(C2CCC(=O)NC2=O)C3=O)cn1)C1CCCCC1)C(C)(C)C)C(=O)C(=O)NC1CC1 (stereo partly specified),EC50,Protein cereblon-NS3,50 nM
CN[C@@H](C)C(=O)N[C@H](C(=O)N1C[C@@H](NC(=O)COCCOCCOCCOCCN2CCN(CCCC(=O)N3CCC[C@@H](n4nc(-c5ccc(Oc6ccccc6)cc5)c5c(N)ncnc54)C3)CC2)C[C@H]1C(=O)N[C@@H]1CCCc2ccccc21)C1CCCCC1,EC50,[1],200 nM
COc1cc2c(Oc3ccc(NC(=O)C4(C(=O)Nc5ccc(F)cc5)CC4)cc3F)cccc2cc1OCCCOCCCOCCC(=O)N[C@H](C(=O)N1C[C@H](O)C[C@H]1C(=O)NCc1ccc(-c2scnc2C)cc1)C(C)(C)C,EC50,[2],210 nM
same,Kd,[3],11000 nM
same,Emax,[4],91%
O=C1CCC(N2C(=O)c3cccc(NCCOCCOCCOCCOCCOCCOCCOCCNCCNc4nonc4/C(=N/O)Nc4ccc(F)c(Br)c4)c3C2=O)C(=O)N1 (stereo unspecified),EC50,[5],2840 nM
same,Emax,[6],93%
CCC[C@H](NC(=O)[C@@H]1[C@H]2CCC[C@H]2CN1C(=O)[C@@H](NC(=O)[C@@H](NC(=O)c1cnc(C(=O)NCCCCCCNc2cccc3c2CN(C2CCC(=O)NC2=O)C3=O)cn1)C1CCCCC1)C(C)(C)C)C(=O)C(=O)NC1CC1 (stereo partly specified),EC50,Protein cereblon-NS3,669 nM
Nc1ncnc2c1c(-c1ccc(Oc3ccccc3)cc1)nn2[C@@H]1CCCN(C(=O)c2cn(CCOCCOCCOCCNc3cccc4c3C(=O)N(C3CCC(=O)NC3=O)C4=O)nn2)C1 (stereo partly specified),EC50,[7],30 nM
COc1cc2nc(N3CCN(C(=O)c4ccco4)CC3)nc(N)c2cc1OC [PRAZOSIN],IC50,PC-3,11700 nM
Cc1ncsc1-c1ccc(CNC(=O)[C@@H]2C[C@@H](O)CN2C(=O)[C@@H](NC(=O)C2(F)CC2)C(C)(C)C)c(OCCOc2ccc(CN3CCN(c4cc(-c5ccccc5O)nnc4N)CC3)cc2)c1,EC50,[8],< 32 nM
same,Emax,[9],> 65%
CO[C@H]1C[C@@H]2CC[C@@H](C)[C@@](O)(O2)C(=O)C(=O)N2CCCC[C@H]2C(=O)O[C@H]([C@@H](C)C[C@@H]2CC[C@@H](OCCOCc3cn(CCOCCOCCNc4cccc5c4C(=O)N(C4CCC(=O)NC4=O)C5=O)nn3)[C@H](OC)C2)CC(=O)[C@H](C)/C=C(\C)[C@@H](O)[C@H](OC)C(=O)[C@H](C)C[C@H](C)/C=C/C=C/C=C/1C (stereo partly specified),EC50,[10],< 0.3 nM
COc1cc2nc(N3CCN(C(=O)c4cn(CCOCCOCCOCC(=O)Nc5cccc6c5C(=O)N(C5CCC(=O)NC5=O)C6=O)nn4)CC3)nc(N)c2cc1OC (stereo unspecified),Emax,[11],94%
same,IC50,PC-3,6120 nM
same,EC50,[12],2860 nM
